Results: PMC10746753 (Pharmaceutical Research, 2023)

Test system: Caki-1 xenografts
Assay: Anti-tumor efficacy study EFF-02
Type: in vivo, CD1 nu/nu mice
Conditions: p.o., 6–7 weeks
Procedure: For all in vivo studies, human Caki-1 renal tumor cells (ATCC: HTB-46, RRID: CVCL_0234; 5 million in 100 µL PBS w/o Ca/Mg, Matrigel [1:1]) were subcutaneously inoculated into the right flank of female 5–6-week-old CD-1 nude mice provided by Charles River Laboratories (CRL), Sulzfeld, Germany. Tumor growth was observed over time by measuring tumor length (L) and width (W) twice weekly using calipers. Tumor volume was calculated using the formula LxW^2/2. Data were collected in Study Advantage™ (data collection system).
Anti-tumor efficacy study. […] PD analysis was not performed in this study.

O=C(NCc1cc(F)cc(F)c1)[C@@]1(O)CCN(c2ccc3[nH]ccc3c2)C1=O [M8891]
minimal efficacious dose: 25 mg/kg BID
